Data: PubChem BioAssay AID720512 (Broad Institute, 2013)
Activity calls are given as the source filed them. No rule for the calls is given here.

Biological target: Toxin B (TcdB) glycohydrolase, Clostridioides difficile 630
Test: TcdB glycohydrolase inhibitors, dose response, biochemical, cherry-pick, plate reader (AID 720512)
Settings: recombinant TcdB glycohydrolase activity; for activity change, negative = inhibition: at 19.5 µM (top of the series)

Structure (SMILES) | activity change, negative = inhibition | AC50
O=C(NCc1ccccc1)[C@@H]1CCCN1C(=O)[C@@H]1CCCN1C(=O)c1cccs1 | inactive | –
CNC(=O)C1CCN(S(=O)(=O)c2c(C)noc2/C=C/c2ccccc2F)CC1 | inactive | –
CCCNC(=O)Nc1ccc2c(c1)C(=O)N(C)[C@H]1CC[C@H](CC(=O)NC3CCC3)O[C@@H]1CO2 | inactive | –
CCN1CCN(C(=O)C2=CC(c3ccc(OC)cc3)=NS(=O)(=O)N2C)CC1 | inactive | –
O=C(Nc1sc2c(c1C(=O)O)CCCC2)c1ccc(Cl)cc1 | inactive | –
CCC(=Nc1ccccc1)C1=C(O)CCCC1=O | inactive | –
O=C(O)c1ccc2c(c1)N(Cc1cccc(F)c1)C(=O)CS2 | inactive | –
Fc1ccc(/C=C\c2nccc3c2[nH]c2ccccc23)cc1 | inactive | –
O=C1/C(=C/c2cccnc2)SC(=NCc2ccccc2)N1Cc1ccccc1 | inactive | –
C[C@@H]1CN([C@H](C)CO)S(=O)(=O)c2ccc(-c3ccncc3)cc2O[C@@H]1CN(C)Cc1ccc(Oc2ccccc2)cc1 | inactive | –
COc1cc(/C=C/c2sc3ccccc3[n+]2CCCS(=O)(=O)[O-])ccc1O | inactive | –
Oc1ccccc1-c1cnc2cccnn12 | inactive | –
COc1cc(/C=N/NC(=O)CCN2CCCCC2)ccc1O | inactive | –
COc1cc(/C(C)=N/NC(=O)CSc2nnc(C)s2)ccc1O | inactive | –
COc1ccccc1-c1cn[nH]c1-c1ccc(O)cc1O | inactive | –
CCC(=O)Nc1ccc2c(c1)OC[C@H](C)N(C(=O)NC(C)C)C[C@@H](C)[C@@H](OC)CN(C)C2=O | inactive | –
CNC(=O)C1Cc2c(-c3ccccc3Oc3ccccc3)ccnc2O1 (stereo unspecified) | inactive | –
Nc1cc(=O)[nH]c(SCC(=O)Nc2ccccc2Sc2ccc(Cl)cc2)n1 | inactive | –
Nc1ccc(C(=O)c2ccc3c(c2)OCCO3)cc1N | inactive | –
CN1C=CC(=CC=C2C=CC(=O)C=C2)C=C1 | inactive | –
CCOc1ccc(S(=O)(=O)NCc2ccccc2Cl)cc1C(N)=O | inactive | –
Cc1cc(C)c2nc(C)cc(N/N=C/c3ccc(O)cc3)c2c1 | – | > 39 µM (inactive)
Cc1ccc(C)c2c1cc(C)c1nnc(SCC(=O)NCc3ccc4c(c3)OCO4)n12 | – | > 39 µM (inactive)

Structure (SMILES) | activity change, negative = inhibition | AC50
C=CCOc1cccc(CNc2ccc3[nH]c(=O)[nH]c3c2)c1 | inactive | –
COc1ccccc1/C=N/NC(=O)CC(=O)NCc1ccccc1 | inactive | –
COc1ccc(-c2ccc3c(c2)[C@H]2[C@H](CCN2C(=O)C2CC2)[C@@H](CO)N3C)cc1 | – | > 39 µM (inactive)
Cc1cccc(NC(=O)c2ccc(N3CCOCC3)c([N+](=O)[O-])c2)n1 | – | > 39 µM (inactive)
C/C(=N\Nc1cc(N2CCOCC2)ncn1)c1ccc(O)cc1 | – | > 39 µM (inactive)
CCn1cc(C(=O)O)c(=O)c2cc(F)c(N3CCN(C(=S)NC(=O)c4ccccc4Br)CC3)cc21 | inactive | –
O=C(Nc1ccc2c(c1)OCCO2)c1cc2ccccc2o1 | inactive | –
CCOCCCNC(=O)C1CCN(S(=O)(=O)c2c(C)noc2/C=C\c2ccc(OC)cc2)CC1 | inactive | –
COc1ccccc1/C=C/c1onc(C)c1S(=O)(=O)N1CCC(C(=O)NC2CCCCCC2)CC1 | inactive | –
C=CCn1c(SCC(=O)N2CC(=O)Nc3ccccc32)nc2scc(-c3ccccc3)c2c1=O | inactive | –
Cc1ccc(S(=O)(=O)Oc2ccc(/C=N/NC(=O)c3nn(C)cc3[N+](=O)[O-])cc2)cc1 | inactive | –
Cc1ccc(S(=O)(=O)N2CC(CBr)=CCC2c2ccccc2)cc1 (stereo unspecified) | – | > 39 µM (inactive)
COc1ccc(-c2nc(N)ncc2-c2ccccc2OC)c(O)c1 | inactive | –
COc1ccccc1C1=NNC(=NCc2ccccc2)SC1 | inactive | –
Cc1c(CNC(=O)c2c([N+](=O)[O-])cnn2C)cnn1C | inactive | –
CC(C)Cc1nnc(NC(=O)CCC(=O)NCc2ccccc2Cl)s1 | inactive | –
Nc1ccc2c(c1)[nH]c(=O)c1cc(N)ccc12 | inactive | –
Cc1cccc(/C=C/c2onc(C)c2S(=O)(=O)N2CCC(C(=O)N3CCCCC3)CC2)c1 | inactive | –
CCCC(=O)Nc1ccc2c(c1)OC[C@H](C)N(CC1CCCC1)C[C@H](C)[C@@H](OC)CN(C)C2=O | inactive | –
Oc1ccc(-c2nccs2)cc1 | inactive | –
C[C@H](CO)N1C[C@H](C)[C@@H](CN(C)C(=O)Nc2ccc(C(F)(F)F)cc2)Oc2c(cccc2N(C)C)C1=O | inactive | –
CC(=O)C(Sc1nccc(-c2cccs2)n1)C(C)=O | inactive | –
COc1cc2ccccc2cc1C(=O)N/N=C/c1cccs1 | inactive | –

Structure (SMILES) | activity change, negative = inhibition | AC50
C[C@H](CO)N1C[C@H](C)[C@@H](CN(C)C(=O)Nc2ccc(C(F)(F)F)cc2)Oc2c(NS(=O)(=O)c3ccccc3)cccc2C1=O | – | > 39 µM (inactive)
CCc1ccccc1NC(=O)CN1CCN(CC(=O)NCc2ccc(Cl)cc2)CC1 | inactive | –
Cn1cc(S(=O)(=O)CC(=O)N2CCCc3ccccc32)c2ccccc21 | inactive | –
S=C(NCCc1ccccc1)Nc1ncccn1 | inactive | –
COC(=O)[C@H]1C[C@@H]1[C@H](NP(=O)(c1ccccc1)c1ccccc1)c1ccccc1 | inactive | –
CNc1nc(C23CC4CC(CC(C4)C2)C3)cs1 | inactive | –
Cc1ccc(S(=O)(=O)Nc2cccnc2Oc2ccc(Cl)cc2)cc1 | inactive | –
Cc1csc(N=Nc2ccc(N(C)C)cc2)[n+]1[O-] | inactive | –
CCC(=O)Nc1ccc2c(c1)OC[C@H](C)N(C(=O)NC(C)C)C[C@H](C)[C@H](OC)CN(C)C2=O | inactive | –
CC1CCN(CCCn2c(=S)[nH]c3c(sc4ccccc43)c2=O)CC1 | inactive | –
COC(=O)CN1C(C)=Nc2ccc(Br)cc2C1c1ccccc1 (stereo unspecified) | inactive | –
COc1ccc(Cl)cc1NC(=O)CN(C)C(=O)c1cc2c(s1)CCCC2 | inactive | –
COc1ccccc1CNC(=O)CNC(=O)N1CC(=O)Nc2ccccc21 | inactive | –
CCN1CC(CNCc2cn(-c3ccc(OC)cc3)nc2-c2ccccc2Cl)CC1=O (stereo unspecified) | inactive | –
O=C(C[n+]1ccccc1)N/N=C/c1ccc(O)cc1 | inactive | –
CC(=O)Oc1ccc2nc(/C=C/c3ccccc3)oc(=O)c2c1 | inactive | –
O=S(=O)(Oc1ccccc1-c1ccccc1)c1ccccc1 | inactive | –
O=C1COc2ccc(C(=O)COC(=O)CNS(=O)(=O)c3cccc(F)c3)cc2N1 | inactive | –
O=C1NN=C2CCCCCCC12 (stereo unspecified) | inactive | –
Cc1ccc(/C=C(\C#N)C(=O)Nc2ccccn2)o1 | inactive | –
O=C(C[C@H]1CC[C@H]2[C@@H](COC[C@H](O)CN2C(=O)Nc2ccc(Cl)c(Cl)c2)O1)NCc1ccncc1 | inactive | –
COc1ccc(NS(=O)CCCc2ccccc2)cc1 (stereo unspecified) | inactive | –
Cc1ccc(C2=NS(=O)(=O)N(C)C(C(=O)NCc3cccs3)=C2)cc1 | inactive | –

Structure (SMILES) | activity change, negative = inhibition | AC50
COc1ccc(C(=O)NC(C(=O)NCc2ccccc2OC)C(C)C)cc1 (stereo unspecified) | inactive | –
O=C(CCn1cnc2ccccc21)N/N=C/c1ccc(O)cc1 | inactive | –
CCOC(=O)c1nnn(-c2nonc2N)c1-c1ccccc1Cl | inactive | –
C=CCc1ccc(O)c(-c2ccc(O)c(CC=C)c2)c1 | inactive | –
Cc1ccc(S(=O)(=O)Oc2cccc(/C=N/Nc3ccc(C(=O)O)cc3)c2)cc1 | inactive | –
COc1ccc(/C=C2/C(=O)C(C)(C(C)C)CCC2C)cc1 (stereo unspecified) | inactive | –
COC(=O)Cc1ccc(NC(=S)NCc2ccco2)cc1 | inactive | –
CCOC(=O)[C@@H]1[C@H]2COc3ccc(Br)cc3[C@@H]2N2C(=O)N(c3cccc(F)c3)C(=O)[C@]12C | inactive | –
CC(=O)Nc1ccc(OC(=O)Oc2ccc(NC(C)=O)cc2)cc1 | inactive | –
O=CN(c1ccccc1)c1ccc2ccccc2c1 | inactive | –
O=c1[nH]nc(-c2ccc(F)cc2)cc1Cc1ccccc1 | inactive | –
COc1ccccc1Nc1nnc(SCc2cc(=O)n3ccsc3n2)s1 | inactive | –
CSc1nc2c(c(=O)[nH]c(=O)n2C)n1Cc1ccccc1 | inactive | –
COc1ccc(C2=NS(=O)(=O)N(C)C(C(=O)N3CCc4ccccc4C3)=C2)cc1OC | inactive | –
NC(=O)c1ccc(NC(=O)CSc2nnc(C3CC3)n2C2CC2)cc1 | inactive | –
COC(=O)C1=C(c2ccc(F)cc2OCc2ccccc2)C[C@@H]2CC[C@H]1N2C(=O)N1CCCC1 | inactive | –
Cn1c(=O)c2c([nH]c(=S)n2Cc2ccc(Cl)cc2)n(C)c1=O | inactive | –
Cn1cnnc1SCC(=O)NC1CCCCC1 | inactive | –
O=C(CSc1ccc2nnc(-c3ccc(F)cc3)n2n1)N1CCOCC1 | inactive | –
CCOC(=O)c1cc([N+](=O)[O-])sc1N | inactive | –
COc1cc(N=Nc2c(C)n(C)n(-c3ccccc3)c2=O)ccc1N | inactive | –
CCOc1ccc(/C=N/n2nnnc2N)cc1O | – | > 39 µM (inactive)
